ChEMBL document CHEMBL5543095 (Eur J Med Chem, 2024)

Tests used:
Huh-7 = test: Antiproliferative activity against human Huh-7 cells assessed as inhibition of cell growth inhibition incubated for 48 hrs by CCK-8 assay; format: functional, cell-based; conditions: Huh-7, 48 h
[1] = Cytotoxicity against HUVEC cells assessed as inhibition of cell growth inhibition incubated for 48 hrs by CCK-8 assay; format: toxicity, cell-based; conditions: human
A549 = test: Antiproliferative activity against human A549 cells assessed as inhibition of cell growth inhibition incubated for 48 hrs by CCK-8 assay; format: functional, cell-based; conditions: A549, 48 h
U-87 MG [2] = test: Antiproliferative activity against human U87 cells assessed as inhibition of cell growth inhibition incubated for 48 hrs by CCK-8 assay; format: functional, cell-based, U-87MG ATCC
U-87 MG [3] = test: Induction of cell cycle arrest in human U87 cells assessed as accumulation of cells at G1 phase at 25 nM measured after 48 hrs by PI staining based flow cytometry analysis (reference value: 72.6%); format: functional, U-87MG ATCC
U-87 MG [4] = test: Induction of cell cycle arrest in human U87 cells assessed as accumulation of cells at […] at 25 nM measured after 48 hrs by PI staining based flow cytometry analysis (reference value: 8.55%); format: functional, U-87MG ATCC
[5] = Apparent permeability across basolateral to apical side in MDCK-MDR1 cells at 10 uM incubated for 90 mins by LC-MS/MS analysis; format: ADME, cell-based, Canis lupus familiaris; conditions: dog
[6] = Apparent permeability across apical to basolateral side in MDCK-MDR1 cells at 10 uM incubated for 90 mins by LC-MS/MS analysis; format: ADME, cell-based, Canis lupus familiaris; conditions: dog
P-gp = test: Substrate activity at P-gp in MDCK-MDR1 cells assessed as efflux ratio of apparent permeability across basolateral to apical side over apical to basolateral side at 10 uM incubated for 90 mins by LC-MS/MS analysis; format: ADME, cell-based, Canis lupus familiaris; conditions: dog
[7] = Toxicity in C57BL/6 mouse implanted with mouse GL261-Luc cells assessed as reduction in body weight at 5 to 10 mg/kg, iv administered every other day on day 0,2,4,6,8,10 and measured after 12 days; format: organism-based; conditions: in vivo, 288 h, dose 5-10 mg/kg, time 12 day
[8] = Toxicity in C57BL/6 mouse implanted with mouse GL261-Luc cells assessed as reduction in body weight at 5 mg/kg, iv administered every other day on day 0,2,4,6,8,10 and measured after 12 days; format: organism-based; conditions: in vivo, 288 h, time 12 day

Row | Compound | IC50 (Huh-7) [µM] | IC50 at 48 h [1] [µM] | IC50 (A549) [µM] | IC50 (U-87 MG [2]) [µM] | Activity (U-87 MG [3]) [%] | Activity (U-87 MG [4]) [%] | Papp B→A at 1.5 h, 10 µM [5] [×10⁻⁶ cm/s] | Papp A→B at 1.5 h, 10 µM [6] [×10⁻⁶ cm/s] | efflux ratio at 1.5 h, 10 µM (P-gp) | Activity [7] | Activity [8]
1 | Cc1ccc2ccc3c(c2n1)OC(N)=C(C#N)C3c1ccc(Br)cc1 (centres undefined) | > 10 | > 10 | 8.12 | > 10 |  |  |  |  |  |  | 
2 | COc1ccc(C2C(C#N)=C(N)Oc3c2cc(Cl)c2cccnc32)cc1OC (centres undefined) | > 10 | > 10 | > 10 | > 10 |  |  |  |  |  |  | 
3 | COc1ccc(C2C(C#N)=C(N)Oc3c2ccc2cccnc32)c(OC)c1OC (centres undefined) | > 10 | > 10 | > 10 | > 10 |  |  |  |  |  |  | 
4 | COc1cc(OC)c(C2C(C#N)=C(N)Oc3c2ccc2ccc(C)nc32)cc1OC (centres undefined) | 4.64 | 7.87 | 8.13 | 4.68 |  |  |  |  |  |  | 
5 | N#CC1=C(N)Oc2c(cc(Cl)c3cccnc23)C1c1ccc(Cl)cc1 (centres undefined) | 4.57 | 7.65 | > 10 | > 10 |  |  |  |  |  |  | 
6 | Cc1ccc2ccc3c(c2n1)OC(N)=C(C#N)C3c1ccc(C(C)C)cc1 (centres undefined) | 6.34 | > 10 | 4.57 | 4.28 |  |  |  |  |  |  | 
7 | COc1ccc(C2C(C#N)=C(N)Oc3c2ccc2ccc(C)nc32)c(OC)c1OC (centres undefined) | 4.89 | > 10 | 6.16 | 5.27 |  |  |  |  |  |  | 
8 | N#CC1=C(N)Oc2c(cc(Cl)c3cccnc23)C1c1ccc(Br)cc1 (centres undefined) | > 10 | > 10 | > 10 | > 10 |  |  |  |  |  |  | 
9 | Cc1ccc2ccc3c(c2n1)OC(N)=C(C#N)C3c1ccc(Cl)c(Cl)c1 (centres undefined) | 1.25 | 8.17 | 1.24 | 1.98 |  |  |  |  |  |  | 
10 | N#CC1=C(N)Oc2c(ccc3cccnc23)C1c1ccc(F)cc1 (centres undefined) | > 10 | > 10 | > 10 | > 10 |  |  |  |  |  |  | 
11 | N#CC1=C(N)Oc2c(ccc3cccnc23)C1c1ccc(Br)cc1 (centres undefined) | > 10 | > 10 | > 10 | > 10 |  |  |  |  |  |  | 
12 | Cc1ccc(C2C(C#N)=C(N)Oc3c2ccc2cccnc32)cc1 (centres undefined) | > 10 | > 10 | > 10 | > 10 |  |  |  |  |  |  | 
13 | CCc1ccc(C2C(C#N)=C(N)Oc3c2ccc2ccc(C)nc32)cc1 (centres undefined) | 3.46 | > 10 | 2.44 | 5.93 |  |  |  |  |  |  | 
14 | N#CC1=C(N)Oc2c(cc(Cl)c3cccnc23)C1c1ccccc1 (centres undefined) | 0.3 | > 10 | 9.66 | 4.38 |  |  |  |  |  |  | 
15 | COc1cc2c(c(OC)c1OC)-c1ccc(OC)c(=O)cc1[C@@H](NC(C)=O)CC2 [COLCHICINE] |  |  |  |  | 19.7 | 46.5 |  |  |  |  | 
16 | C[C@H]1O[C@@H](O[C@H]2[C@@H](O)C[C@H](O[C@H]3[C@@H](O)C[C@H](O[C@H]4CC[C@@]5(C)[C@H](CC[C@@H]6[C@@H]5C[C@@H](O)[C@]5(C)[C@@H](C7=CC(=O)OC7)CC[C@]65O)C4)O[C@@H]3C)O[C@@H]2C)C[C@H](O)[C@@H]1O [DIGOXIN] |  |  |  |  |  |  | 18 | 0.49 | 36.9 |  | 
17 | N#CC1=C(N)Oc2c(ccc3cccnc23)C1c1ccccc1 (centres undefined) | 2.47 | > 10 | > 10 | > 10 |  |  |  |  |  |  | 

Row | Compound | IC50 (Huh-7) [µM] | IC50 at 48 h [1] [µM] | IC50 (A549) [µM] | IC50 (U-87 MG [2]) [µM] | Activity (U-87 MG [3]) [%] | Activity (U-87 MG [4]) [%] | Papp B→A at 1.5 h, 10 µM [5] [×10⁻⁶ cm/s] | Papp A→B at 1.5 h, 10 µM [6] [×10⁻⁶ cm/s] | efflux ratio at 1.5 h, 10 µM (P-gp) | Activity [7] | Activity [8]
18 | CC(C)c1ccc(C2C(C#N)=C(N)Oc3c2cc(Cl)c2cccnc32)cc1 (centres undefined) | > 10 | > 10 | > 10 | > 10 |  |  |  |  |  |  | 
19 | Cc1ccc(C2C(C#N)=C(N)Oc3c2ccc2ccc(C)nc32)cc1 (centres undefined) | 5.51 | 9.02 | 3.05 | 6.12 |  |  |  |  |  |  | 
20 | N#CC1=C(N)Oc2c(cc(Cl)c3cccnc23)C1c1ccc(F)cc1 (centres undefined) | > 10 | > 10 | > 10 | > 10 |  |  |  |  |  |  | 
21 | COc1ccc(C2C(C#N)=C(N)Oc3c2ccc2cccnc32)cc1OC (centres undefined) | 2.95 | > 10 | > 10 | > 10 |  |  |  |  |  |  | 
22 | N#CC1=C(N)Oc2c(ccc3cccnc23)C1c1ccc(Cl)c(Cl)c1 (centres undefined) | 2.35 | 8.23 | 4.95 | 6.18 |  |  |  |  |  |  | 
23 | Cc1ccc2ccc3c(c2n1)OC(N)=C(C#N)C3c1ccc(Cl)cc1 (centres undefined) | 5.31 | > 10 | > 10 | 8.08 |  |  |  |  |  |  | 
24 | Cn1nnc2c(C(N)=O)ncn2c1=O [TEMOZOLOMIDE] |  |  |  |  |  |  | 31.8 | 30.6 | 1.04 | Non-Toxic | Non-Toxic
25 | Cc1ccc2ccc3c(c2n1)OC(N)=C(C#N)C3c1ccc(F)cc1 (centres undefined) | 2 | 7.58 | 3.25 | 7.87 |  |  |  |  |  |  | 
26 | Cc1ccc(C2C(C#N)=C(N)Oc3c2cc(Cl)c2cccnc32)cc1 (centres undefined) | > 10 | > 10 | > 10 | > 10 |  |  |  |  |  |  | 
27 | COc1ccc(C2C(C#N)=C(N)Oc3c2cc(Cl)c2cccnc32)c(OC)c1OC (centres undefined) | > 10 | > 10 | > 10 | > 10 |  |  |  |  |  |  | 
28 | CC(C)c1ccc(C2C(C#N)=C(N)Oc3c2ccc2cccnc32)cc1 (centres undefined) | > 10 | > 10 | > 10 | > 10 |  |  |  |  |  |  | 
29 | Cc1ccc2ccc3c(c2n1)OC(N)=C(C#N)C3c1cccc(Cl)c1Cl (centres undefined) | 2.22 | > 10 | > 10 | 3.69 |  |  |  |  |  |  | 
30 | N#CC1=C(N)Oc2c(ccc3cccnc23)C1c1ccc(Cl)cc1 (centres undefined) | > 10 | > 10 | > 10 | > 10 |  |  |  |  |  |  | 
31 | COc1ccc(C2C(C#N)=C(N)Oc3c2ccc2ccc(C)nc32)cc1OC (centres undefined) | > 10 | > 10 | > 10 | 4.85 |  |  |  |  |  |  | 
32 | N#CC1=C(N)Oc2c(cc(Cl)c3cccnc23)C1c1ccc(Cl)c(Cl)c1 (centres undefined) | 2.14 | > 10 | 6.42 | 4.13 |  |  |  |  |  |  | 
33 | COc1cc(C2C(C#N)=C(N)Oc3c2ccc2ccc(C)nc32)cc(OC)c1Br (centres undefined) | 2.6 | > 10 | 1.59 | 2.87 |  |  |  |  |  |  | 
34 | CC[C@@]1(O)C(=O)OCc2c1cc1n(c2=O)Cc2cc3cc(O)ccc3nc2-1 [HYDROXYCAMPTOTHECIN] | 1.35 | 0.92 | 0.12 | 2.92 |  |  |  |  |  |  | 
